According to article PMC10528299, “Targeting FAK/PYK2 with SJP1602 for Anti-Tumor Activity in Triple-Negative Breast Cancer” (Current Issues in Molecular Biology, 2023):

Legend:
Assay in all cases: Eurofins kinase profiling
Type in all cases: biochemical
Ret(h) = target: T1, Ret(h) (Homo sapiens, UniProt P07949); settings: read-out: residual kinase activity Ret(h)
T1 construct: purchased Eurofins KinaseProfiler
Outline: (§1)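 At a fixed 1 µM, the compound was profiled against each kinase, whose activity was quantified through radiolabeled phosphate incorporation.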

EGFR(L858R)(h) = target: T2, EGFR(L858R)(h) (Homo sapiens, UniProt P00533, L858R); settings: read-out: residual kinase activity EGFR(L858R)(h)
T2 construct: purchased Eurofins KinaseProfiler
Outline: as §1

Wee1(h) = target: T3, Wee1(h) (Homo sapiens, UniProt P30291); settings: read-out: residual kinase activity Wee1(h)
T3 construct: purchased Eurofins KinaseProfiler
Outline: as §1

MEK1(h) = target: T4, MEK1(h) (Homo sapiens, UniProt Q02750); settings: read-out: residual kinase activity MEK1(h)
T4 construct: purchased Eurofins KinaseProfiler
Outline: as §1

DYRK2(h) = target: T5, DYRK2(h) (Homo sapiens, UniProt Q92630); settings: read-out: residual kinase activity DYRK2(h)
T5 construct: purchased Eurofins KinaseProfiler
T5 sequence (Q92630 1-601): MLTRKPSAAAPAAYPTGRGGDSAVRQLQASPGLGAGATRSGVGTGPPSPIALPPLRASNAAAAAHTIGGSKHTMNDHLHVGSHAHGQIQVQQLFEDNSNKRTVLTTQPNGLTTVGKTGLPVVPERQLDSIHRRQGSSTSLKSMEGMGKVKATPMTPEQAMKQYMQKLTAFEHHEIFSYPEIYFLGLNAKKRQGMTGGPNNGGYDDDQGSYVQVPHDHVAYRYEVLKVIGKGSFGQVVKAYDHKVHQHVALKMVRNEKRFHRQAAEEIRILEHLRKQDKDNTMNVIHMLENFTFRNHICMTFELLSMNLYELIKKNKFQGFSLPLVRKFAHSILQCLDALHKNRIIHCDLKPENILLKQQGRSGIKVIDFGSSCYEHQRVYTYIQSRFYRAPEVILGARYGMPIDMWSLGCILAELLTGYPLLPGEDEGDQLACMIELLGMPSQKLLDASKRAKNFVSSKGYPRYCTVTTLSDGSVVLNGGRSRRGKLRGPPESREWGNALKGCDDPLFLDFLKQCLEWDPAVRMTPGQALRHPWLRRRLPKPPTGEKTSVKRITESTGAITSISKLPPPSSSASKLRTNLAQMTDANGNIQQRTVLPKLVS
Outline: as §1

Lck(h) activated = target: T6, Lck(h) activated (Homo sapiens, UniProt P06239); settings: 1 µM
T6 construct: purchased Eurofins KinaseProfiler
Outline: as §1

ZAP-70(h) = target: T7, ZAP-70(h) (Homo sapiens, UniProt P43403); settings: read-out: residual kinase activity ZAP-70(h)
T7 construct: purchased Eurofins KinaseProfiler
T7 sequence (P43403 1-619): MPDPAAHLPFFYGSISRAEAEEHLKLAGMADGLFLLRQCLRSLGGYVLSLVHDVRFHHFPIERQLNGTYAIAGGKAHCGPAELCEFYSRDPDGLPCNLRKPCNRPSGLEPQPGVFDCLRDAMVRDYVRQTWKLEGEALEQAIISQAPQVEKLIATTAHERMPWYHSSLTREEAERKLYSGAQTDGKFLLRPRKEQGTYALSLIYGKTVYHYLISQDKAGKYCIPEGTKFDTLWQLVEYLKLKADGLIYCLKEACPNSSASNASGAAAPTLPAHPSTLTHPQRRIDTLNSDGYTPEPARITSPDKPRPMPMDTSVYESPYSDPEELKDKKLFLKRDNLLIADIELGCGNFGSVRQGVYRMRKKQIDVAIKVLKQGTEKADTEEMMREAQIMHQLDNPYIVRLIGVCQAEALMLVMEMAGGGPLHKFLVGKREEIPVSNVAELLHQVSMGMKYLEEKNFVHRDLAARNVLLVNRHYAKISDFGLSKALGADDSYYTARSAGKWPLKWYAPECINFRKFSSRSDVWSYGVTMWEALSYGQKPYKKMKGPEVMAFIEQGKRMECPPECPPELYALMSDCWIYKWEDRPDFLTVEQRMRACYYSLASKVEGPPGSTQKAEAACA
Outline: as §1

Axl(h) = target: T8, Axl(h) (Homo sapiens, UniProt P30530); settings: read-out: residual kinase activity Axl(h)
T8 construct: purchased Eurofins KinaseProfiler
T8 sequence (P30530 26-894): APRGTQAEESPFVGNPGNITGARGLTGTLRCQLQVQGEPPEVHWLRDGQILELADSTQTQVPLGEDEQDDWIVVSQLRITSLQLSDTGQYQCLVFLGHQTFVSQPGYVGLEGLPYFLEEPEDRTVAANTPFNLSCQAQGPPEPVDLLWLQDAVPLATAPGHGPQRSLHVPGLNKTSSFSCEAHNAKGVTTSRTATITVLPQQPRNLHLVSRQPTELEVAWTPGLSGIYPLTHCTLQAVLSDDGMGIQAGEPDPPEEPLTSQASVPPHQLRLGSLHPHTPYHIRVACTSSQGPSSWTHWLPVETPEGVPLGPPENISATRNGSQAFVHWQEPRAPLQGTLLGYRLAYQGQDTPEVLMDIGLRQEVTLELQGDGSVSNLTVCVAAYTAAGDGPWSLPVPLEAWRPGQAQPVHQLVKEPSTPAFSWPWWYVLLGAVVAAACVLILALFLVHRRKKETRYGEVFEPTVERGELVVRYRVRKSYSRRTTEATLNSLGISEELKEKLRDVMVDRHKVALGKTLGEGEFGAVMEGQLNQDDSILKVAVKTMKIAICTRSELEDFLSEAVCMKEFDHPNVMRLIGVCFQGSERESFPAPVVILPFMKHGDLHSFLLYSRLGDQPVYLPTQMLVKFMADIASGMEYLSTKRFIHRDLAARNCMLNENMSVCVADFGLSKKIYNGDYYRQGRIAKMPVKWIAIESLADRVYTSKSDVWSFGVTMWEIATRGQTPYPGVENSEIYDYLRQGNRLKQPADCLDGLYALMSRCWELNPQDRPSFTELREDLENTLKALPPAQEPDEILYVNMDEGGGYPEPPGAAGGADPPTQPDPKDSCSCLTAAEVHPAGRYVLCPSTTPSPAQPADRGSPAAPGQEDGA
Outline: as §1

Lck(h) = target: T9, Lck(h) (Homo sapiens, UniProt P06239); settings: read-out: residual kinase activity Lck(h)
T9 construct: purchased Eurofins KinaseProfiler
Outline: as §1

[1] = target: T10, PI3 Kinase (p110a(E542K)/p85a)(h) (Homo sapiens, UniProt P42336, E542K); settings: read-out: residual kinase activity PI3 Kinase (p110a(E542K)/p85a)(h)
T10 construct: purchased Eurofins KinaseProfiler
Outline: as §1

T3 sequence (P30291 whole entry): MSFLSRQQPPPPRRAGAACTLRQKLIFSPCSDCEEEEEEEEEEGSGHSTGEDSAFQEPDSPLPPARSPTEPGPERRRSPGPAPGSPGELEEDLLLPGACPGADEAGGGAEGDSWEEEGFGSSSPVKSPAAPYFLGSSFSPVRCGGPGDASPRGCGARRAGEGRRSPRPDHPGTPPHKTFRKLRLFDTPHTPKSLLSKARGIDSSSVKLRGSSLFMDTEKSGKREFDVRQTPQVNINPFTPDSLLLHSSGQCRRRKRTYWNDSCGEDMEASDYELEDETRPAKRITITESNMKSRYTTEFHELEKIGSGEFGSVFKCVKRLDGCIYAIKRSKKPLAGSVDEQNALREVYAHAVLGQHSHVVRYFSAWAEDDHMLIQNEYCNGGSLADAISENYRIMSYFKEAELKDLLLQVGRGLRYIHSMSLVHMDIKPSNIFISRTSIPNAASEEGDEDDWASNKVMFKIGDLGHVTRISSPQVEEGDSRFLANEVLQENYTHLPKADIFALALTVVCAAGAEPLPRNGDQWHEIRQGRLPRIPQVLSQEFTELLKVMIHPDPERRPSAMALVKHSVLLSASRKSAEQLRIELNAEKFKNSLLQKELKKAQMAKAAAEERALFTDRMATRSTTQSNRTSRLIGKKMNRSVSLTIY
T6 sequence (P06239 whole entry): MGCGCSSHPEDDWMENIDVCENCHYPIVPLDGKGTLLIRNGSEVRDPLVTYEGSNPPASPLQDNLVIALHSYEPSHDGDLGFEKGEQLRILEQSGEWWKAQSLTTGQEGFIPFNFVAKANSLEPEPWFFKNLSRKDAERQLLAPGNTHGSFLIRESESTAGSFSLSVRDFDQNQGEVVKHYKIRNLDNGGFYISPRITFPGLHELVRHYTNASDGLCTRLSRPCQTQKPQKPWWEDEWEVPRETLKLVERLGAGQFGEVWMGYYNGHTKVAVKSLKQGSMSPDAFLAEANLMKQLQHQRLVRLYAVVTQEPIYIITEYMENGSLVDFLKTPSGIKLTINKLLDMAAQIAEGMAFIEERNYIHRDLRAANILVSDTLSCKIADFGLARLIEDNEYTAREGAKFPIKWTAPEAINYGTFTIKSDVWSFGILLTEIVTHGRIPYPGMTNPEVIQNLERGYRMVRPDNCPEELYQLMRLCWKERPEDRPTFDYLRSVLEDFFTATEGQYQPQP
T9 sequence (P06239 whole entry): as above
T1 sequence (P07949 29-1114): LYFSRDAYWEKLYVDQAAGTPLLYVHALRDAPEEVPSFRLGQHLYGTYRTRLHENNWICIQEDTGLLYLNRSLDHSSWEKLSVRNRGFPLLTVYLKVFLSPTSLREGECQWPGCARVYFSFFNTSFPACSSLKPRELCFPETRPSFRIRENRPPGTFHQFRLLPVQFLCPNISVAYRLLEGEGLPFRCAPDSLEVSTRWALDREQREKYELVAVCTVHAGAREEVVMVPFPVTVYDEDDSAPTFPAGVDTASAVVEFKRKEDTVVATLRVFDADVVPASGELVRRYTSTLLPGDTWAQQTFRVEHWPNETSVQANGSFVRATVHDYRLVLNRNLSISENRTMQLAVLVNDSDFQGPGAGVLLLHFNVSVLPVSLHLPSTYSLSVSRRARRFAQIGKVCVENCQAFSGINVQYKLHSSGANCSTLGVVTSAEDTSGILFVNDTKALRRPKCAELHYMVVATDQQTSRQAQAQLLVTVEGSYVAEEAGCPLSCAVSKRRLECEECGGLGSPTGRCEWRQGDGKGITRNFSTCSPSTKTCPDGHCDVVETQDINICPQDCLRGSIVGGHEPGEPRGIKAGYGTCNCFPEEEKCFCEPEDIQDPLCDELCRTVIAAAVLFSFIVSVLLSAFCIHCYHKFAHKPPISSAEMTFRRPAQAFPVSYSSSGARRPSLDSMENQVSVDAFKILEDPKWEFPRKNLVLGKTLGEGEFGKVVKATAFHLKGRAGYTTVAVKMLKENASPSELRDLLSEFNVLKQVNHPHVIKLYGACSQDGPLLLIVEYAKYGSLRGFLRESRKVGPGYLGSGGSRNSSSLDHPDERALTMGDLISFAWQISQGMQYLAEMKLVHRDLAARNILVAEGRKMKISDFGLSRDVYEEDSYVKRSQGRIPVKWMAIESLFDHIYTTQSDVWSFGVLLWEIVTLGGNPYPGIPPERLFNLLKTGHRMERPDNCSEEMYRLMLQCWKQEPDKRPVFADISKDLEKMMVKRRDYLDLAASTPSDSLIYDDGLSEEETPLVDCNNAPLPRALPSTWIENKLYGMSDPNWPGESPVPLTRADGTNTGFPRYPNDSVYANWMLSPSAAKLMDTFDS
T2 sequence (P00533 25-1210 L858R): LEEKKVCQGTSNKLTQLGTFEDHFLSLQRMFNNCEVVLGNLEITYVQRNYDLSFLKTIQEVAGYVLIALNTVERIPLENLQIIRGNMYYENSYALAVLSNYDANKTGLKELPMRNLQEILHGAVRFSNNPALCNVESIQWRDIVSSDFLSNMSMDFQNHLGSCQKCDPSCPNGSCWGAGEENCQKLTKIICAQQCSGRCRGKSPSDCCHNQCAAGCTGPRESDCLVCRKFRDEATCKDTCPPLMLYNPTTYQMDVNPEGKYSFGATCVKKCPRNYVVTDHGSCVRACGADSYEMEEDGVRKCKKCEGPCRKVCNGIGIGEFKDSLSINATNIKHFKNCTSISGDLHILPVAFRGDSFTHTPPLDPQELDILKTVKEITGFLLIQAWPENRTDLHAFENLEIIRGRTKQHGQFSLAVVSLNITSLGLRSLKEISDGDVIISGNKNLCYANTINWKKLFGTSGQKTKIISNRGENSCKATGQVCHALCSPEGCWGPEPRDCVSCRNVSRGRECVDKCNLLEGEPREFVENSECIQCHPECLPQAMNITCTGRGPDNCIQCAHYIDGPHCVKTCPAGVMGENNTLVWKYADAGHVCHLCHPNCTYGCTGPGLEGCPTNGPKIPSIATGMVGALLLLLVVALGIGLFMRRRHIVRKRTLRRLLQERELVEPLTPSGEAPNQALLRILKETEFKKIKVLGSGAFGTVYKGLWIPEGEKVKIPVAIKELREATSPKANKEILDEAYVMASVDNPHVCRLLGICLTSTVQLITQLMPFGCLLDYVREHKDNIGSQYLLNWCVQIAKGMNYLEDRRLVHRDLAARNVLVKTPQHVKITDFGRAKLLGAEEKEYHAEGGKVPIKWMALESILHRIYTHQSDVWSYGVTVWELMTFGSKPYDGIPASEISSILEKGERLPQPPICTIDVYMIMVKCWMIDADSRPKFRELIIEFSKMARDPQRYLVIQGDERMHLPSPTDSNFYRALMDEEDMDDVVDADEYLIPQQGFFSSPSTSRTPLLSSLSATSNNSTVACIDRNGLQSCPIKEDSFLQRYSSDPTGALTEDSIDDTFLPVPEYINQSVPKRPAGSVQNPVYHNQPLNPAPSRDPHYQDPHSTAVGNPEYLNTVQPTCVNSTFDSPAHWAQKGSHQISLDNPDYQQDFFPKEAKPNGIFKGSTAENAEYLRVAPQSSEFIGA
T4 sequence (Q02750 whole entry): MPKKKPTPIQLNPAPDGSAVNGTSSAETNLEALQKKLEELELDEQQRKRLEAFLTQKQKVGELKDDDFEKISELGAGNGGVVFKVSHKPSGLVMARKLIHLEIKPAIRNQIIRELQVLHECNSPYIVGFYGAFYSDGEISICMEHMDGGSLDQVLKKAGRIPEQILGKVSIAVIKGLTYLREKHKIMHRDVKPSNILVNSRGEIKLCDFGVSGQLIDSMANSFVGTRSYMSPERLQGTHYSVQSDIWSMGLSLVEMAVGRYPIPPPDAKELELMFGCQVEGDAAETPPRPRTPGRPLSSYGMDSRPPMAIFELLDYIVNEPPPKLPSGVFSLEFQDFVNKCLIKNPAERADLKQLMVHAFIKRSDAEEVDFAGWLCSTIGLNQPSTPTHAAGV

Row | Structure (SMILES) | remaining activity at 1 µM (Ret(h)) [%] | remaining activity at 1 µM (EGFR(L858R)(h)) [%] | remaining activity at 1 µM (Wee1(h)) [%] | remaining activity at 1 µM (MEK1(h)) [%] | remaining activity at 1 µM (DYRK2(h)) [%] | residual kinase activity Lck(h) activated (Lck(h) activated) | remaining activity at 1 µM (ZAP-70(h)) [%] | remaining activity at 1 µM (Axl(h)) [%] | remaining activity at 1 µM (Lck(h)) [%] | remaining activity at 1 µM [1] [%]
1 | CONC(=O)c1ccccc1Nc1cc(Nc2cc(C)nn2C(C)C)ncc1Cl [GSK2256098] | 117 | 33 | 88 | 101 | 52 | 90 | 105 | 84 | 110 | 97
2 | CNC(=O)c1ccc(Nc2ncc(C(F)(F)F)c(NCc3nccnc3N(C)S(C)(=O)=O)n2)cc1 [VS-6063, Defactinib] | 39 | 134 | 72 | 93 | 80 | 58 | 139 | 57 | 30 | 104
3 | CNC(=O)c1cccc(C)c1Nc1nc(Nc2ccc(N3CCN(C4C5CC6CC4CC(O)(C6)C5)CC3)cc2OC)ncc1C(F)(F)F (stereo not drawn) [SJP1602, 2-((2-((4-(4-((2s,5r)-5-hydroxyadamantan-2-yl)piperazin-1-yl)-2-methoxyphenyl)amino)-5-(trifluoromethyl)pyrimidin-4-yl)amino)-N,3-dimethylbenzamide] | 111 | 133 | 101 | 98 | 97 | 107 | 124 | 105 | 63 | 101
